Laboratory results as given in publication PMC11085448 (Molecules, 2024).
Several values for one entry are separate records, joined by “and”; a condition that tells them apart may be missing. Equal values may be shown once.

Assays:
[1] = target: T1, human κ-opioid receptor (OPRK1) (Homo sapiens, UniProt P41145); assay: forskolin-induced cAMP accumulation assay, KOR agonist; settings: for EC50: KOR Agonist EC50 ± SEM, inhibition of forskolin-induced cAMP accumulation, CHO-K1 cells expressing human KOR; for Emax: CHO-K1, read-out: KOR Agonist %Emax ± SEM, CHO-K1 cells expressing human KOR, normalized to the forskolin control
[2] = target: T2, human δ-opioid receptor (OPRD1) (Homo sapiens, UniProt P41143); assay: forskolin-induced cAMP accumulation assay, DOR agonist; settings: for Emax: CHO-K1, read-out: DOR Agonist %Emax ± SEM, CHO-K1 cells expressing human DOR; for EC50: DOR Agonist EC50 ± SEM, inhibition of forskolin-induced cAMP accumulation
[3] = target: T1, human κ-opioid receptor (OPRK1); assay: forskolin-induced cAMP accumulation assay, KOR antagonist
[4] = target: T3, human μ-opioid receptor (OPRM1) (Homo sapiens, UniProt P35372); assay: cell-based; settings: for EC50: MOR Agonist EC50 ± SEM; for Emax: read-out: MOR Agonist %Emax ± SEM
T3 construct: host or cells: cAMP Hunter CHO-K1 (Chinese hamster ovary) cells

[5] = target: T2, human δ-opioid receptor (OPRD1); assay: forskolin-induced cAMP accumulation assay, DOR antagonist; format: cell-based; parameters: host or cells: cAMP Hunter CHO-K1 (Chinese hamster ovary) cells; settings: for DOR Antagonist %Imax ± SEM: CHO-K1 human DOR, versus EC50 of SNC80, Imax normalized to naltrexone
[6] = normalized to the forskolin control
[7] = CHO-K1 cells expressing human DOR

T2 sequence (P41143 whole entry): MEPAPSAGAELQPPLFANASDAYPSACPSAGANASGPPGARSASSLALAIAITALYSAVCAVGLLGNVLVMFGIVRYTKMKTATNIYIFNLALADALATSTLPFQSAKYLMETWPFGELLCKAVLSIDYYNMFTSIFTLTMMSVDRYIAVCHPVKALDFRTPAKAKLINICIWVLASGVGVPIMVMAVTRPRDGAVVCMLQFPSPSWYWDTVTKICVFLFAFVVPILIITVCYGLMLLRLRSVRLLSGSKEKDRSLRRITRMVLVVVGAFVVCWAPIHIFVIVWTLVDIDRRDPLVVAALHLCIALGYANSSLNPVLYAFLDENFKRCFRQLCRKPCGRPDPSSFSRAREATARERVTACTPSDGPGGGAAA
T3 sequence (P35372 whole entry): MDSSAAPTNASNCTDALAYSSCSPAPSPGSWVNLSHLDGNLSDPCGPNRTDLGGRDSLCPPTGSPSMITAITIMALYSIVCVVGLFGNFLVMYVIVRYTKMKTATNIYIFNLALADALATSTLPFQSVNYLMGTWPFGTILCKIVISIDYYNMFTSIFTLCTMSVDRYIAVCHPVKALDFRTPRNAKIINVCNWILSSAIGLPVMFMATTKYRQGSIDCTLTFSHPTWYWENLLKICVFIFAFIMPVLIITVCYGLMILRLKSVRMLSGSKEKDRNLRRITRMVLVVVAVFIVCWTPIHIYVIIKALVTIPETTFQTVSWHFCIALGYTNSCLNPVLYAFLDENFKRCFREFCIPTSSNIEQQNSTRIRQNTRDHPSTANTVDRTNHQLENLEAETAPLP
T1 sequence (P41145 whole entry): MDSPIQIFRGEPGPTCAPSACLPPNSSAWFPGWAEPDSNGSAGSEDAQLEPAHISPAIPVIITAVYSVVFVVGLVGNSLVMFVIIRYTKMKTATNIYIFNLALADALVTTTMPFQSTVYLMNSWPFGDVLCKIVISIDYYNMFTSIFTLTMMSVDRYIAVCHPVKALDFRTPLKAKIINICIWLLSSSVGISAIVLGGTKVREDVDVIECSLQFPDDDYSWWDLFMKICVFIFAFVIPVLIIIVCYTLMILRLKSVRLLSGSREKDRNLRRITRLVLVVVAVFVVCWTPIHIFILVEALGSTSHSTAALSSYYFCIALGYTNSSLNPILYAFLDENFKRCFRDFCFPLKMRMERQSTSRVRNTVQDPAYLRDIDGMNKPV

| SMILES | EC50 [1] | Emax [2, 6] | EC50 [2, 7] | IC50 [3] | EC50 [4] | Emax [4] | IC50 [5] | Emax [1] | DOR Antagonist %Imax ± SEM [5] | DOR Agonist %Emax ± SEM ([2]; CHO-K1 cells expressing human DOR, normalized to the forskolin control) | MOR agonist potency relative to morphine (times more potent) [4] | KOR Antagonist %Imax ± SEM ([3]; CHO-K1 human KOR, versus EC90 of U50488H, Imax normalized to nor-BNI) |
| --- | --- | --- | --- | --- | --- | --- | --- | --- | --- | --- | --- | --- |
| N[C@H]1[C@H]2CCC[C@]1(c1cccc(O)c1)CCN2CCc1ccccc1 [1R,5R,9R-23, 3-((1R,5R,9R)-9-Amino-2-phenethyl-2-azabicyclo[3.3.1]nonan-5-yl)phenol] | > 10000 nM | 46.6% | 186 ± 12.5 nM | > 10000 nM | 26 nM and 26.1 nM | 81% |  |  |  |  |  |  |
| N[C@@H]1[C@H]2CCC[C@]1(c1cccc(O)c1)CCN2CCc1ccccc1 [1R,5R,9S-6, 3-((1R,5R,9S)-9-Amino-2-phenethyl-2-azabicyclo[3.3.1]nonan-5-yl)phenol] | > 10000 nM | 39.4% | 690 ± 188 nM | > 10000 nM | 24 nM | 91% | > 10000 nM |  |  |  |  |  |
| CN[C@@H]1[C@H]2CCC[C@]1(c1cccc(O)c1)CCN2CCc1ccccc1 [1R,5R,9S-10, 3-((1R,5R,9S)-9-(Methylamino)-2-phenethyl-2-azabicyclo[3.3.1]nonan-5-yl)phenol] |  |  |  |  | 83 nM and 82.8 nM | 28% |  |  |  |  |  |  |
| ON=C1[C@H]2CCC[C@]1(c1cccc(O)c1)CCN2CCc1ccccc1 [1R,5R-17, (1R,5R)-5-(3-Hydroxyphenyl)-2-phenethyl-2-azabicyclo[3.3.1]nonan-9-one oxime] | 146 ± 19 nM | 32.2% | 157 ± 72 nM | > 10000 nM | 22 nM and 22.1 nM | 99% | 1080 ± 464 nM | 21.2% | 66.5 ± 6.0% |  |  |  |
| N#CC=C1[C@H]2CCC[C@]1(c1cccc(O)c1)CCN2CCc1ccccc1 [1R,5R-33, 2-((1R,5R)-5-(3-hydroxyphenyl)-2-phenethyl-2-azabicyclo[3.3.1]nonan-9-ylidene)acetonitrile] | > 10000 nM | 69% | 8 nM and 8.1 nM |  | 1.8 nM | 100% |  | > 50% |  | 69.3 ± 6.0% | about three times |  |
| N#CC[C@H]1[C@H]2CCC[C@]1(c1cccc(O)c1)CCN2CCc1ccccc1 [1R,5S,9R-35, 2-((1R,5S,9R)-5-(3-hydroxyphenyl)-2-phenethyl-2-azabicyclo[3.3.1]nonan-9-yl)acetonitrile] | > 10000 nM | 35% | 4 nM and 4.3 nM | > 10000 nM | 0.85 nM | 99% | 94.5 ± 29.5 nM |  | 35.1 ± 2.6% |  |  |  |
| CNC[C@@H]1[C@H]2CCC[C@]1(c1cccc(O)c1)CCN2CCc1ccccc1 [1R,5S,9R-52, 3-((1R,5S,9R)-9-((Methylamino)methyl)-2-phenethyl-2-azabicyclo[3.3.1]nonan-5-yl)phenol] | 210 ± 92 nM | 62% | 502 ± 125 nM |  | 43 nM and 43.3 nM | 94% |  | 57% |  |  |  |  |
| N#CC[C@@H]1[C@H]2CCC[C@]1(c1cccc(O)c1)CCN2CCc1ccccc1 [1R,5S,9S-41, 2-((1R,5S,9S)-5-(3-Hydroxyphenyl)-2-phenethyl-2-azabicyclo[3.3.1]nonan-9-yl)acetonitrile] |  |  |  |  | > 10000 nM |  |  |  |  |  |  |  |
| CNC[C@H]1[C@H]2CCC[C@]1(c1cccc(O)c1)CCN2CCc1ccccc1 [1R,5S,9S-53, 3-((1R,5S,9S)-9-((Methylamino)methyl)-2-phenethyl-2-azabicyclo[3.3.1]nonan-5-yl)phenol] | > 10000 nM | 17.4% | 43.9 ± 22.2 nM | > 10000 nM | 16 nM and 15.9 nM | 97% | 1630 ± 882 nM |  | 109.3 ± 5.2% |  |  |  |
| N#CC[C@H]1[C@@H]2CCC[C@@]1(c1cccc(O)c1)CCN2CCc1ccccc1 [1S,5R,9R-38, 2-((1S,5R,9R)-5-(3-Hydroxyphenyl)-2-phenethyl-2-azabicyclo[3.3.1]nonan-9-yl)acetonitrile] | > 10000 nM | 46.8% | 55 ± 3.9 nM | 44 ± 4 nM | 2.5 nM | 89.6% |  |  |  |  | about twice | 97 ± 0.1% |
| CNC[C@@H]1[C@@H]2CCC[C@@]1(c1cccc(O)c1)CCN2CCc1ccccc1 [1S,5R,9R-47, 3-((1S,5R,9R)-9-((Methylamino)methyl)-2-phenethyl-2-azabicyclo[3.3.1]nonan-5-yl)phenol] | 95.7 ± 17 nM | 84.7% | 416 ± 21.1 nM |  | 3.7 nM and 3.66 nM | 102% |  | 93.4% |  |  |  |  |
| N#CC[C@@H]1[C@@H]2CCC[C@@]1(c1cccc(O)c1)CCN2CCc1ccccc1 [1S,5R,9S-34, 2-((1S,5R,9S)-5-(3-Hydroxyphenyl)-2-phenethyl-2-azabicyclo[3.3.1]nonan-9-yl)acetonitrile] | > 10000 nM | 61.5% | 575 ± 127 nM | > 10000 nM | 27 nM and 27.3 nM | 101% |  |  |  |  |  |  |
| N[C@H]1[C@@H]2CCC[C@@]1(c1cccc(O)c1)CCN2CCc1ccccc1 [1S,5S,9R-3, 3-((1S,5S,9R)-9-Amino-2-phenethyl-2-azabicyclo[3.3.1]nonan-5-yl)phenol] | > 10000 nM |  |  |  | > 10000 nM |  |  |  |  |  |  |  |
| CN[C@H]1[C@@H]2CCC[C@@]1(c1cccc(O)c1)CCN2CCc1ccccc1 [1S,5S,9R-8, 3-((1S,5S,9R)-9-(Methylamino)-2-phenethyl-2-azabicyclo[3.3.1]nonan-5-yl)phenol] | > 10000 nM |  |  |  | > 10000 nM |  |  |  |  |  |  |  |
| N[C@@H]1[C@@H]2CCC[C@@]1(c1cccc(O)c1)CCN2CCc1ccccc1 [1S,5S,9S-22, 3-((1S,5S,9S)-9-Amino-2-phenethyl-2-azabicyclo[3.3.1]nonan-5-yl)phenol] |  |  |  |  | 94 nM and 94.1 nM | 53% |  |  |  |  |  |  |
| ON=C1[C@@H]2CCC[C@@]1(c1cccc(O)c1)CCN2CCc1ccccc1 [1S,5S-15, (1S,5S)-5-(3-Hydroxyphenyl)-2-phenethyl-2-azabicyclo[3.3.1]nonan-9-one oxime] | > 10000 nM |  |  |  | 229 nM | 91% |  |  |  |  |  |  |
| N#CC=C1[C@@H]2CCC[C@@]1(c1cccc(O)c1)CCN2CCc1ccccc1 [1S,5S-28, 2-((1S,5S)-5-(3-Hydroxyphenyl)-2-phenethyl-2-azabicyclo[3.3.1]nonan-9-ylidene)acetonitrile] | > 10000 nM | 51.4% | 1520 ± 385 nM | > 10000 nM | 27 nM and 27.2 nM | 101% |  |  |  |  |  |  |
| Oc1ccc2c3c1O[C@H]1c4[nH]c5ccccc5c4C[C@@]4(O)[C@@H](C2)N(CC2CC2)CC[C@]314 [Naltrindole, reference compound] |  |  |  |  |  |  |  |  | 106.8 ± 4.8% |  |  |  |
